Patent US20230293490A1, “PROFILIN1:ACTIN INHIBITOR AS AN ANTI-ANGIOGENIC COMPOUND” (University of Pittsburgh- Of the Commonwealth System of …, priority 2020, published 2023)

What was measured:
human dermal VEC = assay: Matrigel cord assay (in vitro angiogenesis); type: cell-based; settings: for concentration able to inhibit angiogenesis: matrigel cord assay, human dermal VEC
Procedure: (§1) Note that contrasting its effect in cells, in biochemical assay Pfn1 inhibits actin polymerization by actin sequestering, and neither compound affects actin polymerization kinetics without the presence of Pfn1 (an important screening criterion).
(§2) Cell culture, transfection and viral transduction: Murine VHL-deleted variant of RENCA (referred to as RVN cells) cells were cultured in DMEM with 10% (v/v) FBS and 1% (v/v) antibiotics. Human VHL-negative 786-0 cells (source: ATCC) were cultured in RPMI-1640 media supplemented with 10% (v/v) FBS and antibiotics. HmVEC-1, a widely used immortalized human dermal microvascular EC line (ATCC; CRL-3243—referred to as VEC), were cultured in MCDB-131 (Life Technologies; Carlsbad, CA) growth medium supplemented with 10% (v/v) FBS, 1% (v/v) antibiotics, 10 ng/mL EGF, 1 μg/mL Hydrocortisone and 10 mM L-Glutamine. For adenovirus infection, cells were plated, allowed to attach and then infected with adenovirus encoding either GFP (Ad-GFP) or Pfn1 (Ad-Pfn1) at a MOI of 500 for 24 h, before further incubation for an additional 48h in fresh culture media prior to use. For knockdown studies, cells were transfected with 50 nM of either smart-pool control or Pfn1 siRNA for 72 h.

RVN cells [1] = assay: Serum-induced chemotactic (transwell) migration of RVN cells; type: cell-based, murine; settings: dose-dependent
Procedure: as §2, with “For knockdown studies, cells were transfected with 50 nM of either smart-pool control or Pfn1 siRNA for 72 h.” left out
(§3) Cell migration and proliferation assays: For single-cell migration experiments, RVN, VEC and 786-0 cells were plated in 24-well plates coated with type I collagen (Millipore) overnight. […] For cell proliferation assay, one thousand RCC cells were plated per well in 96-well plates using quadruplicate determinations, with proliferation assessed by time-course analyses of DAPI-stained nuclei based on images acquired over 3 to 5 random fields per well.

Pfn1-actin interaction = assay: Pyrene-actin polymerization assay; type: biochemical
Excerpt: as §1

RVN cells [2] = assay: RVN cell proliferation assay; type: cell-based, murine; settings: dose-dependent
Procedure: as §2, with “For knockdown studies, cells were transfected with 50 nM of either smart-pool control or Pfn1 siRNA for 72 h.” left out
as §3

[3] = tested on: human renal cancer cell line; assay: Human renal cancer cell line migration; type: cell-based; settings: dose dependent
RENCA cells = assay: Subcutaneous RENCA tumor model, daily intratumoral injection; type: in vivo, Balb/c mice
Excerpt: To determine whether C74 has any therapeutic benefit in vivo, we performed an exploratory study in which we established subcutaneous tumors by transplantation of RENCA cells in syngeneic Balb/c mice and injected either C74 or DMSO (vehicle) directly at the tumor cell inoculation site daily over a course of 19 days starting from day 1.
In vivo tumorigenesis: In 6 to 8 week old BALB/cJ mice, 1×10^6 RENCA cells were implanted subcutaneously in a 1:1 PBS:Matrigel (R&D Systems; Minneapolis, MN) mixture, supplemented with 81 μg C74 or DMSO control. Intratumoral injections were then given daily with either 320 μg C74 or control dissolved in saline, through day 19 post-implantation. On day 20, mice were sacrificed and harvested tumors were weighed. All animal experiments were performed according to the institutionally approved animal welfare guidelines.

[4] = tested on: human renal cancer cell line; assay: Human renal cancer cell line proliferation; type: cell-based; settings: dose dependent
[5] = tested on: human retinal endothelial cells; assay: Angiogenic capability of human retinal endothelial cells in vitro; type: cell-based
choroidal NV = assay: Laser-induced choroidal NV (CNV) model, IVT injection; type: in vivo, mice; settings: IVT C74 (50 μM)
Procedure: FIGS. 8A-8D. […] Laser-induced choroidal NV (CNV—an in vivo model that induces sub-retinal NV in response to laser injury in mice and is widely used to study NV aspects of wet AMD) in the settings of IVT injection of either DMSO (VEH) or C74 (50 μM) (panel C) and associated quantification (panel D).

choroidal explant = assay: Choroidal explant angiogenesis culture (ex vivo)

SMILES	concentration able to inhibit angiogenesis (human dermal VEC)	fold lower concentration than C2 to inhibit angiogenesis (human dermal VEC; C74 vs C2)	range of concentrations reducing migration (RVN cells [1])	reversal of Pfn1's inhibition of actin polymerization (Pfn1-actin interaction; actin plus Pfn1, fluorescence measures actin polymerization)	effect on actin polymerization without Pfn1 (Pfn1-actin interaction; compound alone, no Pfn1)	range of concentrations reducing proliferation (RVN cells [2])	migration [3]	average end-point tumor burden (tumor weight) (RENCA cells; daily injection at tumor site over 19 days, tumors weighed day 20, n=10 animals)	tumor angiogenesis (CD31-positive immune-reactive region of tumor histosections) (RENCA cells; daily intratumoral administration, relative to DMSO)	proliferation [4]	angiogenic capability [5]	choroidal neovascularization in vivo (choroidal NV)	choroidal neovascularization ex vivo (choroidal explant)
Oc1cccc(C2c3c(-c4ccccc4)nnc(O)c3Nc3nnnn32)c1 (centres unmarked) [C2, 8-(3-hydroxyphenyl)-10-phenyl-2,4,5,6,7,11,12-heptaazatricyclo[7.4.0.0^3,^7]trideca-1(13),3,5,9,11-pentaen-13-ol, reference compound]	50 µM												
Cc1n[nH]c(O)c1C(c1ccc(Br)cc1)c1c(C)n[nH]c1O [C74, 4-[(4-bromophenyl)(5-hydroxy-3-methyl-1H-pyrazol-4-yl)methyl]-3-methyl-1H-pyrazol-5-ol]	10 µM	~5 fold	10 to 25 µM	can reverse Pfn1's inhibition of actin polymerization	does not significantly alter actin polymerization on its own	10 to 25 µM	reduced	978.8 ± 366.0 mg	reduces tumor angiogenesis	reduced	inhibited	inhibited	inhibited
